Reference: US9446066B2, “Methods for reducing pulmonary uptake of intravenously injected cells” (priority 2010, dated 2016)
Several values for one entry are separate records, joined by “and”; a condition that tells them apart may be missing. Equal entries are not always repeated.

Key:
Porcine T-lymphoblasts = assay: T-lymphoblast labeling and in vitro retention of [18F]FDG; assay type: cell-based; settings: mono-exponential fit, R^2=0.99; 6 time points over 120 minutes
Method: (§1) [^18F]FDG (t1/2=109.8 min) was prepared according to standard procedures (TRACERIab FxFDG, GE Medical Systems, USA). Cells were incubated with [^18F]FDG in 7-10 mL PBS for 60 minutes at 37° C. before being washed to remove excess radioactivity.
The retention (the rate of tracer washout through GLUTs after dephosphorylation of [^18F]FDG-6P) was measured in triplicates at 6 different time points over 120 minutes and the retention half-life was estimated by fitting the data to a mono-exponential curve.

[1] = human patients, following an administration of dextran sulfate; cited from earlier work
T-lymphoblasts = assay: PET-examination of lung uptake and distribution of transfused [18F]FDG-labeled T-lymphoblasts; assay type: in vivo, pig; settings: for pulmonary uptake of T-lymphoblasts compared to intravenous administration alone (in words): pre-incubation and intravenous co-administration with dextran sulfate
Method: In this study we present a method to monitor transfusion of T-lymphoblasts in vivo in a porcine model by PET-imaging. Porcine T-lymphoblasts were labeled with [^18F]FDG prior to administration, and the kinetics and bio-distribution of the cells was monitored for up to 2 hours. [^18F]FDG is a functional analogue to glucose, but cannot be metabolized further than the initial phosphorylation by hexokinase and is trapped in the cell cytoplasm. The same concept has been applied by our group to image transplantation of islets of Langerhans in a porcine model and in the clinical setting.
In the present work, three modes of administration were compared; intravenous administration with or without co-administration of the complement and coagulatory inhibitor low molecular weight dextran sulphate (LMW-DS), and intraarterial administration.
Spleens from three months old pigs were surgically resected and stored in PBS for immediate preparation. Spleens were cut into smaller fragments and mashed first against a 1 mm steel mesh and a second time with a syringe rubber plunger against a fine nylon mesh. The tissue was resuspended in PBS and the T-lymphoblasts were isolated using Ficoll-Paque (GE-Healthcare Uppsala, Sweden) density gradient centrifugation. All T-lymphoblasts were activated with PHA (1 μg/mL) (Invitrogen, Carlsbad, Calif., USA) to simulate the clinical setting of adoptively transferred tumor infiltrating lymphocytes.
T-lymphoblasts were suspended in 10-15 mL of PBS and administered over 10 minutes either intravenously into the internal jugular vein (n=5) or intraarterially into the ascending aorta (n=1). Two of the pigs given intravenous administration were pretreated with LMW-DS (4.5 mg/kg) (Apoteket AB, Umeå, Sweden). The T-lymphoblasts were in these two cases co-administered intravenously together with LMW-DS (9 mg/kg, followed by continuous infusion of 7.2 mg/kg/h).
as §1
Six pigs were examined by PET after administration of [^18F]FDG-labeled T-lymphoblasts. A GE Discovery ST PET/CT scanner (n=3) or a Hamamatsu SHR-7700 scanner (n=3) was used. Dynamic sequences were acquired over the lungs and liver for up to 120 minutes. The kinetic data obtained was expressed as absolute number of cells or the percentage of administered cells. Results are given as averages±SEM.
The concentration and total amount of cells trapped in lung tissue could be quantified. Table 1 presents the amount of T-lymphoblasts in the lungs at 30 minutes. Between 80 and up to 635 million cells (16 to 79% of the grafts) was trapped in lung tissue after administration. To quantify the amount of cells trapped in hotspots we defined two levels of density: hotspots with a cellular density over either 250.000 cells/cc (moderate density) or over 500.000 cells/cc (high density).

[2] = range over the two LMW-DS pigs, lungs at 30 minutes

Molecule	[18F]FDG retention half-life (Porcine T-lymphoblasts) [h]	APTT safely achieved [1]	% of cells in lungs (T-lymphoblasts; at 30 minutes, single pig)	lung uptake (% of the administered T-lymphoblasts), average (T-lymphoblasts; at completed transfusion, intravenous co-administration of LMW-DS, pretreated pigs, n=2) [%]	pulmonary uptake of T-lymphoblasts compared to intravenous administration alone (in words) (T-lymphoblasts)	pulmonary uptake of T-lymphoblasts compared to intravenous administration alone (in words) (T-lymphoblasts; listed as dextran sulfate)	amount of cells in high density hotspots (T-lymphoblasts; [2])	cells in high density hotspots as % of lung uptake (T-lymphoblasts; [2])
OC[C@H]1OC(O)[C@H]([18F])[C@@H](O)[C@@H]1O (stereo partly drawn) [[^18F]FDG, ^18F-2-fluoro-2-deoxy-D-glucose]	5.32							
low molecular weight dextran sulfate [LMW-DS]		about 250 s	16.3% and 31.8%	36.6	lower	decreased	0-111 million cells	0-39%
